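Exposure lasted 48 hours, with cells grown in 96-well plates and compounds tested at five concentrations. TGI: concentration producing complete growth inhibition.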
How the values were obtained:
Assay in all cases: DTP human tumour cell line panel, 48 h
786-0 renal = test system: 786-0 renal
A498 renal = test system: A498 renal
A549 NSCLC = test system: A549 NSCLC
ACHN renal = test system: ACHN renal
BT-549 breast = test system: BT-549 breast
CAKI-1 renal = test system: CAKI-1 renal
CCRF-CEM leukemia = test system: CCRF-CEM leukemia
COLO 205 colon = test system: COLO 205 colon
DU-145 prostate = test system: DU-145 prostate
EKVX NSCLC = test system: EKVX NSCLC
HCC-2998 colon = test system: HCC-2998 colon
HCT-116 colon = test system: HCT-116 colon
HCT-15 colon = test system: HCT-15 colon
HL-60(TB) leukemia = test system: HL-60(TB) leukemia
HOP-62 NSCLC = test system: HOP-62 NSCLC
HS 578T breast = test system: HS 578T breast
HT29 colon = test system: HT29 colon
IGROV1 ovarian = test system: IGROV1 ovarian
K-562 leukemia = test system: K-562 leukemia
KM12 colon = test system: KM12 colon
LOX IMVI melanoma = test system: LOX IMVI melanoma
M14 melanoma = test system: M14 melanoma
MALME-3M melanoma = test system: MALME-3M melanoma
MCF7 breast = test system: MCF7 breast
MDA-MB-231 breast = test system: MDA-MB-231 breast
MDA-MB-435 = test system: MDA-MB-435
MDA-N = test system: MDA-N
MOLT-4 leukemia = test system: MOLT-4 leukemia
NCI-H226 lung = test system: NCI-H226 lung
NCI-H23 lung = test system: NCI-H23 lung
NCI-H460 lung = test system: NCI-H460 lung
NCI/ADR-RES ovarian = test system: NCI/ADR-RES ovarian
OVCAR-3 ovarian = test system: OVCAR-3 ovarian
OVCAR-4 ovarian = test system: OVCAR-4 ovarian
OVCAR-5 ovarian = test system: OVCAR-5 ovarian
OVCAR-8 ovarian = test system: OVCAR-8 ovarian
PC-3 prostate = test system: PC-3 prostate
RPMI-8226 leukemia = test system: RPMI-8226 leukemia
RXF 393 renal = test system: RXF 393 renal
SF-268 CNS = test system: SF-268 CNS
SF-295 CNS = test system: SF-295 CNS
SF-539 CNS = test system: SF-539 CNS
SK-MEL-28 melanoma = test system: SK-MEL-28 melanoma
SK-MEL-5 melanoma = test system: SK-MEL-5 melanoma
SK-OV-3 ovarian = test system: SK-OV-3 ovarian
SN12C renal = test system: SN12C renal
SNB-19 CNS = test system: SNB-19 CNS
SNB-75 CNS = test system: SNB-75 CNS
SR leukemia = test system: SR leukemia
SW-620 colon = test system: SW-620 colon
TK-10 renal = test system: TK-10 renal
U251 CNS = test system: U251 CNS
UACC-257 melanoma = test system: UACC-257 melanoma
UACC-62 melanoma = test system: UACC-62 melanoma
UO-31 renal = test system: UO-31 renal
HOP-92 NSCLC = test system: HOP-92 NSCLC
NCI-H522 lung = test system: NCI-H522 lung
SK-MEL-2 melanoma = test system: SK-MEL-2 melanoma
T-47D breast = test system: T-47D breast

Cc1ccc(N2C3=C(CC4=C2CC(C)(C)CC4=O)C(=O)CC(C)(C)C3)cc1
TGI (786-0 renal): > 100 µM | TGI (A498 renal): > 100 µM | TGI (A549 NSCLC): > 100 µM | TGI (ACHN renal): > 100 µM | TGI (BT-549 breast): > 100 µM | TGI (CAKI-1 renal): > 100 µM | TGI (CCRF-CEM leukemia): > 100 µM | TGI (COLO 205 colon): > 100 µM | TGI (DU-145 prostate): > 100 µM | TGI (EKVX NSCLC): > 100 µM | TGI (HCC-2998 colon): > 100 µM | TGI (HCT-116 colon): > 100 µM | TGI (HCT-15 colon): > 100 µM | TGI (HL-60(TB) leukemia): > 100 µM | TGI (HOP-62 NSCLC): > 100 µM | TGI (HS 578T breast): > 100 µM | TGI (HT29 colon): > 100 µM | TGI (IGROV1 ovarian): > 100 µM | TGI (K-562 leukemia): > 100 µM | TGI (KM12 colon): > 100 µM | TGI (LOX IMVI melanoma): > 100 µM | TGI (M14 melanoma): > 100 µM | TGI (MALME-3M melanoma): > 100 µM | TGI (MCF7 breast): > 100 µM | TGI (MDA-MB-231 breast): > 100 µM | TGI (MDA-MB-435): > 100 µM | TGI (MDA-N): > 100 µM | TGI (MOLT-4 leukemia): > 100 µM | TGI (NCI-H226 lung): > 100 µM | TGI (NCI-H23 lung): > 100 µM | TGI (NCI-H460 lung): > 100 µM | TGI (NCI/ADR-RES ovarian): > 100 µM | TGI (OVCAR-3 ovarian): > 100 µM | TGI (OVCAR-4 ovarian): > 100 µM | TGI (OVCAR-5 ovarian): > 100 µM | TGI (OVCAR-8 ovarian): > 100 µM | TGI (PC-3 prostate): > 100 µM | TGI (RPMI-8226 leukemia): > 100 µM | TGI (RXF 393 renal): > 100 µM | TGI (SF-268 CNS): > 100 µM | TGI (SF-295 CNS): > 100 µM | TGI (SF-539 CNS): > 100 µM | TGI (SK-MEL-28 melanoma): > 100 µM | TGI (SK-MEL-5 melanoma): > 100 µM | TGI (SK-OV-3 ovarian): > 100 µM | TGI (SN12C renal): > 100 µM | TGI (SNB-19 CNS): > 100 µM | TGI (SNB-75 CNS): 82.6 µM | TGI (SR leukemia): > 100 µM | TGI (SW-620 colon): > 100 µM | TGI (TK-10 renal): > 100 µM | TGI (U251 CNS): > 100 µM | TGI (UACC-257 melanoma): > 100 µM | TGI (UACC-62 melanoma): > 100 µM | TGI (UO-31 renal): > 100 µM

Nc1nc(Cc2ccccc2)nc(Cc2ccccc2)c1-c1ccccc1
TGI (786-0 renal): 70.5 µM | TGI (A498 renal): 46.7 µM | TGI (A549 NSCLC): > 100 µM | TGI (ACHN renal): > 100 µM | TGI (BT-549 breast): 50.9 µM | TGI (CAKI-1 renal): 96.1 µM | TGI (DU-145 prostate): 56.1 µM | TGI (EKVX NSCLC): > 100 µM | TGI (HCC-2998 colon): > 100 µM | TGI (HCT-116 colon): 46 µM | TGI (HCT-15 colon): 84.3 µM | TGI (HL-60(TB) leukemia): 60.5 µM | TGI (HOP-62 NSCLC): 54 µM | TGI (HOP-92 NSCLC): 59.6 µM | TGI (HS 578T breast): > 100 µM | TGI (HT29 colon): > 100 µM | TGI (IGROV1 ovarian): > 100 µM | TGI (K-562 leukemia): > 100 µM | TGI (KM12 colon): 75 µM | TGI (LOX IMVI melanoma): 51.4 µM | TGI (M14 melanoma): > 100 µM | TGI (MALME-3M melanoma): 50.2 µM | TGI (MDA-MB-231 breast): 49.1 µM | TGI (MDA-MB-435): 59.3 µM | TGI (MDA-N): 38.8 µM | TGI (MOLT-4 leukemia): 59.7 µM | TGI (NCI-H226 lung): 53.4 µM | TGI (NCI-H23 lung): 45.2 µM | TGI (NCI-H460 lung): > 100 µM | TGI (NCI-H522 lung): 46.1 µM | TGI (NCI/ADR-RES ovarian): 55 µM | TGI (OVCAR-3 ovarian): 37.2 µM | TGI (OVCAR-4 ovarian): > 100 µM | TGI (OVCAR-5 ovarian): > 100 µM | TGI (OVCAR-8 ovarian): > 100 µM | TGI (PC-3 prostate): 77.7 µM | TGI (RXF 393 renal): > 100 µM | TGI (SF-268 CNS): 85.9 µM | TGI (SF-295 CNS): > 100 µM | TGI (SK-MEL-2 melanoma): 29.8 µM | TGI (SK-MEL-28 melanoma): > 100 µM | TGI (SK-MEL-5 melanoma): 29.2 µM | TGI (SN12C renal): > 100 µM | TGI (SNB-19 CNS): > 100 µM | TGI (SR leukemia): 48.5 µM | TGI (SW-620 colon): > 100 µM | TGI (T-47D breast): > 100 µM | TGI (TK-10 renal): > 100 µM | TGI (U251 CNS): 37.1 µM | TGI (UACC-257 melanoma): > 100 µM | TGI (UACC-62 melanoma): 43 µM | TGI (UO-31 renal): > 100 µM

— PubChem BioAssay (NCI)
